Measured values published in ChEMBL document CHEMBL5126546, “Advancements in the development of multi-target directed ligands for the treatment of Alzheimer's disease” (Bioorg Med Chem, 2022).

Assays:
Beta-secretase 1 = Beta-secretase 1 (Homo sapiens, UniProt P56817); test: Inhibition of recombinant human BACE-1 using MCA-SEVNLDAEFR-Ednp-KRR-NH2.3TFA as substrate incubated for 2 hrs by Varioskan-flash multimode plate reader analysis
Rattus norvegicus [1] = test: Antiinflammatory activity in carrageenan induced Sprague-Dawley rat acute inflammation model assessed as inhibition of paw edema at 50 mg/kg, po for 1 hr followed by carrageenan injection snd measured after 3 hrs relative to control; assay type: functional; parameters: scale not given: the % may be the effect or the level left; details: time 4 hrs
Rattus norvegicus [2] = test: Antiinflammatory activity in formalin induced Sprague-Dawley rat chronic inflammation model assessed as inhibition of paw edema at 50 mg/kg, po for 1 hr followed by formalin injection for 5 days relative to control; assay type: functional; parameters: scale not given: the % may be the effect or the level left; details: time 5 day
SK-N-MC = test: Antiproliferative activity against human SK-N-MC cells assessed as reduction in cell proliferation incubated for 72 hrs by MTT assay; assay type: functional, cell-based
Acetylcholinesterase [3] = target: T1, Acetylcholinesterase (Homo sapiens, UniProt P22303); test: Inhibition of recombinant human AChE using acetylthiocholine iodide as substrate by Ellman's method
[4] = target: Glycogen synthase kinase-3 beta (Homo sapiens) (UniProt P49841); test: Inhibition of GSK-3beta (unknown origin) at 10 uM by Kinase-GLO reagent based assay
Acetylcholinesterase [5] = target: T2, Acetylcholinesterase (Electrophorus electricus, UniProt O42275); test: Inhibition of Electrophorus electricus AChE using acetylthiocholine iodide as substrate preincubated for 5 mins followed by substrate addition and measured for 5 mins by spectrophotometric based Ellman's method
[6] = target: T3, Gamma-secretase (Homo sapiens) (UniProt Q96BI3+Q9NZ42+Q8WW43+P49768+Q92542+P49810); test: Inhibition of gamma secretase in human H4 cells expressing human wild type APP assessed as reduction in amyloid beta 1-40 level at 100 uM for 12 hrs by ELISA; assay type: cell-based
[7] = target: T3, Gamma-secretase (Homo sapiens); test: Inhibition of gamma secretase in human H4 cells expressing human wild type APP assessed as reduction in amyloid beta 1-42 level at 100 uM for 12 hrs by ELISA; assay type: cell-based
[8] = target: T4, Amyloid-beta precursor protein (Homo sapiens, UniProt P05067); test: Inhibition of Cu2+ induced amyloid beta (1 to 42) (unknown origin) aggregation at 25 uM and measured after 24 hrs by Thioflavin T based fluorometric assay
Acetylcholinesterase [9] = target: T1, Acetylcholinesterase; test: Inhibition of recombinant human AChE using Amplex red, acetylthiocholine as substrate preincubated for 15 mins followed by substrate addition and measured after 30 mins by microplate fluorescence reader analysis
Cholinesterase [10] = target: Cholinesterase (Equus caballus, UniProt P81908); test: Inhibition of equine serum BuChE using butyrylthiocholine iodide as substrate by Ellman's method
[11] = target: T4, Amyloid-beta precursor protein; test: Inhibition of amyloid beta (1 to 42) (unknown origin) self aggregation at 40 uM and measured after 24 hrs by Thioflavin T based fluorometric assay
[12] = target: T5, Amine oxidase [flavin-containing] A (Homo sapiens, UniProt P21397); test: Inhibition of recombinant human MAO-A using p-tyramine as substrate preincubated for 15 mins followed by substrate addition and measured after 30 mins by Amplex Red reagent based fluorometric analysis
[13] = target: T6, Amine oxidase [flavin-containing] B (Homo sapiens, UniProt P27338); test: Inhibition of recombinant human MAO-B using p-tyramine as substrate preincubated for 15 mins followed by substrate addition and measured after 30 mins by Amplex Red reagent based fluorometric analysis
Cholinesterase [14] = target: T7, Cholinesterase (Homo sapiens, UniProt P06276); test: Inhibition of BuChE (unknown origin)
[15] = target: T4, Amyloid-beta precursor protein; test: Inhibition of self-induced amyloid beta (1 to 42) (unknown origin) aggregation at 25 uM
[16] = target: T4, Amyloid-beta precursor protein; test: Inhibition of self-induced amyloid beta (1 to 42) (unknown origin) disaggregation at 25 uM
[17] = Selectivity index, ratio of IC50 for inhibition of equine serum BuChE to IC50 for inhibition of electric eel AChE
[18] = target: T5, Amine oxidase [flavin-containing] A; test: Inhibition of recombinant human MAO-A assessed as amount of 4-hydroxyquinoline using kynuramine as a substrate incubated for 30 mins by fluorescence spectrophotometry
[19] = target: T6, Amine oxidase [flavin-containing] B; test: Inhibition of recombinant human MAO-B assessed as amount of 4-hydroxyquinoline using kynuramine as a substrate incubated for 30 mins by fluorescence spectrophotometry
Acetylcholinesterase [20] = target: T2, Acetylcholinesterase; test: Inhibition of Electrophorus electricus AchE incubated for 15 mins by Ellman's method
Cholinesterase [21] = target: T7, Cholinesterase; test: Inhibition of BuChE (unknown origin) incubated for 15 mins by Ellman's method
[22] = Antioxidant activity of compound assessed as trolox equivalent of ORAC radical scavenging activity by ORAC-FL assay; assay type: functional
[23] = Permeability of compound by PAMPA-BBB assay; assay type: ADME; details: read-out: permeability
[24] = target: Microtubule-associated protein tau (Homo sapiens) (UniProt P10636); test: Inhibition of tau aggregation (unknown origin) at 20 uM for 72 hrs by thioflavin S based fluorescence analysis
[25] = target: Glutamate [NMDA] receptor; test: Inhibition of NMDA receptor (unknown origin); assay type: protein-complex assay, Homo sapiens
[26] = target: Glutamate receptor ionotropic AMPA (Homo sapiens, UniProt P42261+P42262+P42263+P48058); test: Inhibition of AMPA receptor (unknown origin); assay type: protein-complex assay

T1 sequence (P22303 whole entry): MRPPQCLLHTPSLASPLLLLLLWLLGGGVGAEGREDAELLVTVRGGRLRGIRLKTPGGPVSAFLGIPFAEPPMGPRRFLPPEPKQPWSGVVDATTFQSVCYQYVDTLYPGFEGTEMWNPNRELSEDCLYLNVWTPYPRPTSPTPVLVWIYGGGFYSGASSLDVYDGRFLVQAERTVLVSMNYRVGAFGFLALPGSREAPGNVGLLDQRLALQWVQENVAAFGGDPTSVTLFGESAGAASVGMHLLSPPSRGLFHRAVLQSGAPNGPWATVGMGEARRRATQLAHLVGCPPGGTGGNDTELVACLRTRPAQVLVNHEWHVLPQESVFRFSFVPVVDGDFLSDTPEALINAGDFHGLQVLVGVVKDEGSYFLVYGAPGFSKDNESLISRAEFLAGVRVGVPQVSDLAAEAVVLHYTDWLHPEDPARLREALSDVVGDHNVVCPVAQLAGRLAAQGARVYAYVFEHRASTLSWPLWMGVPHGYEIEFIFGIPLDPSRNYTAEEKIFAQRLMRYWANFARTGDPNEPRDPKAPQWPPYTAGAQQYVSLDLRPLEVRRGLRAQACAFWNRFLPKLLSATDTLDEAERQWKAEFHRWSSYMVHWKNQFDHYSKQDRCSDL
T4 sequence (P05067 whole entry): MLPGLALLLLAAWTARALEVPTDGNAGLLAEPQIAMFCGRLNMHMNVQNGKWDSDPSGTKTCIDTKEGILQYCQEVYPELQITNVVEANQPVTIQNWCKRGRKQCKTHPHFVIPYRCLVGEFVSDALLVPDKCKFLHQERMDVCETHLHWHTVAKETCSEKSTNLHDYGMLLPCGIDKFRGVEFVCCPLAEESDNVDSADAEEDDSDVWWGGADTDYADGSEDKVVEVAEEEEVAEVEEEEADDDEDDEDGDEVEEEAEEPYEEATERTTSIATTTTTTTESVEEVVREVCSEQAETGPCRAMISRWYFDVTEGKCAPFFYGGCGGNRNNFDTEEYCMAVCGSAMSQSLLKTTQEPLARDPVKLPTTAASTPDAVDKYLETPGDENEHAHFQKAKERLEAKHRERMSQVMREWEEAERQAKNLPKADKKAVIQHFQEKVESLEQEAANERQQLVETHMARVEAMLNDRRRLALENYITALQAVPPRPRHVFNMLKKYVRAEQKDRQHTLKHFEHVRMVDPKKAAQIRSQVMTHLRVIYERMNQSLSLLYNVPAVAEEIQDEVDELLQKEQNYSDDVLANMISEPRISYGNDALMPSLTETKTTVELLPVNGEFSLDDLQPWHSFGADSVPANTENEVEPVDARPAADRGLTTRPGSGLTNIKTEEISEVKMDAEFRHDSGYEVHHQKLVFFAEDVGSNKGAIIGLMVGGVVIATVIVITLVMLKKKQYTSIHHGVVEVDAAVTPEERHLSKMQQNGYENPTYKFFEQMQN
T7 sequence (P06276 whole entry): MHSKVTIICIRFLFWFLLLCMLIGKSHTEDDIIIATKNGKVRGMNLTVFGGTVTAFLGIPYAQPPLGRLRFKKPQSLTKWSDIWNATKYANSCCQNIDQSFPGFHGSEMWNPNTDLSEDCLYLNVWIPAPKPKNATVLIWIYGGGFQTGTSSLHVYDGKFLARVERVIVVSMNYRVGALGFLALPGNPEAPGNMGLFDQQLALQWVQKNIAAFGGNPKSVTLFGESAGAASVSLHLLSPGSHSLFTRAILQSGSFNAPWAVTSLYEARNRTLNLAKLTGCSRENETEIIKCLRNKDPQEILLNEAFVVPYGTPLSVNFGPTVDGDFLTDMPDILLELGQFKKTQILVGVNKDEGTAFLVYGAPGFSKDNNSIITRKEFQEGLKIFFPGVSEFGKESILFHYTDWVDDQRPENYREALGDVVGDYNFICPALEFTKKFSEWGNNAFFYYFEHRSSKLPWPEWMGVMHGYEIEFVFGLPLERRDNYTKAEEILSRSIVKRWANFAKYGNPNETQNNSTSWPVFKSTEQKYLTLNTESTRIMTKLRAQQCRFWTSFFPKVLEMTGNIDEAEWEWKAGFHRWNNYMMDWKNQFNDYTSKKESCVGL
T5 sequence (P21397 whole entry): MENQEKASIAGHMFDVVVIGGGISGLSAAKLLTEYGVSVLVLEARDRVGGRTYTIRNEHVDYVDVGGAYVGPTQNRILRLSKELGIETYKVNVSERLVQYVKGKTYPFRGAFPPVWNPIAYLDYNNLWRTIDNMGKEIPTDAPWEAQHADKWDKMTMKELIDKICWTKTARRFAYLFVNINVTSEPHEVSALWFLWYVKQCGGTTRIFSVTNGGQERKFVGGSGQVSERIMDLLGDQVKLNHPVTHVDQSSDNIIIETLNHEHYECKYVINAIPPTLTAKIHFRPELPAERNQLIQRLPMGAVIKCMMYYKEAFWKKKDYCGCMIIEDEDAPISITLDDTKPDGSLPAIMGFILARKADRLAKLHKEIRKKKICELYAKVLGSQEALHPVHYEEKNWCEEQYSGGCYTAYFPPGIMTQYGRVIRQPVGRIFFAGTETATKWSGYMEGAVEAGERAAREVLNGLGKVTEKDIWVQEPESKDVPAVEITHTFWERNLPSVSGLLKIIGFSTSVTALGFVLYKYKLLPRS
T6 sequence (P27338 whole entry): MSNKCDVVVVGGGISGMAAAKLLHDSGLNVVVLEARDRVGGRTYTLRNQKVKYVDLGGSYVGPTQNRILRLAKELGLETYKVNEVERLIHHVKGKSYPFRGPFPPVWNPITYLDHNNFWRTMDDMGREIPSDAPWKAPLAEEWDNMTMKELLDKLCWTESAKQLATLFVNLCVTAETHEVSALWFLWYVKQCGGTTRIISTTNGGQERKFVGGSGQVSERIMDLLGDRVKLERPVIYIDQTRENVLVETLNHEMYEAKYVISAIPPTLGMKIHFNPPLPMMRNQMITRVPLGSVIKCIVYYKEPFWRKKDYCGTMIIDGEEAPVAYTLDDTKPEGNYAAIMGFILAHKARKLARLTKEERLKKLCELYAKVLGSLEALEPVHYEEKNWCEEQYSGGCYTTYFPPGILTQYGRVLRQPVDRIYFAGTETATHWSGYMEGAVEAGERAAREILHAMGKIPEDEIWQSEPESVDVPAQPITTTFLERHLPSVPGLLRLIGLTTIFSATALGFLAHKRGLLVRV
T2 sequence (O42275 whole entry): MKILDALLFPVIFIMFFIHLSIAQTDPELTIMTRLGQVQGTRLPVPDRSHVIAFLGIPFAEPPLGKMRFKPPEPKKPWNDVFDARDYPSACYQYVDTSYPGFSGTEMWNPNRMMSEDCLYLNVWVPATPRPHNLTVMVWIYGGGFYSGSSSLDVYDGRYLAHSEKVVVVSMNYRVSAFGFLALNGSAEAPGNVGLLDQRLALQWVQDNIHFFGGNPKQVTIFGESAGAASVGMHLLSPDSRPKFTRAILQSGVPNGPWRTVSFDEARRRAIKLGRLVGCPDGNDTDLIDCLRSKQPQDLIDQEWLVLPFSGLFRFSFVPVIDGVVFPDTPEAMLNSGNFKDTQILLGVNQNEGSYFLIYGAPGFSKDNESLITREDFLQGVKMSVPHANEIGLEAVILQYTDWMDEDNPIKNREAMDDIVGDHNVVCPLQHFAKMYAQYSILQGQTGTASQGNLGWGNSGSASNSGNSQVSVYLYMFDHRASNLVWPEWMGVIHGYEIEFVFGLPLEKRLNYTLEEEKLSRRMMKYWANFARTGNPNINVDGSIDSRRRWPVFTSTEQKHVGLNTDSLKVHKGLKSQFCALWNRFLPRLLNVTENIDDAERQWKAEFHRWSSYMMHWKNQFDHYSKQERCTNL
Chain of Cholinesterase (Equus caballus, UniProt P81908) (P81908 whole entry): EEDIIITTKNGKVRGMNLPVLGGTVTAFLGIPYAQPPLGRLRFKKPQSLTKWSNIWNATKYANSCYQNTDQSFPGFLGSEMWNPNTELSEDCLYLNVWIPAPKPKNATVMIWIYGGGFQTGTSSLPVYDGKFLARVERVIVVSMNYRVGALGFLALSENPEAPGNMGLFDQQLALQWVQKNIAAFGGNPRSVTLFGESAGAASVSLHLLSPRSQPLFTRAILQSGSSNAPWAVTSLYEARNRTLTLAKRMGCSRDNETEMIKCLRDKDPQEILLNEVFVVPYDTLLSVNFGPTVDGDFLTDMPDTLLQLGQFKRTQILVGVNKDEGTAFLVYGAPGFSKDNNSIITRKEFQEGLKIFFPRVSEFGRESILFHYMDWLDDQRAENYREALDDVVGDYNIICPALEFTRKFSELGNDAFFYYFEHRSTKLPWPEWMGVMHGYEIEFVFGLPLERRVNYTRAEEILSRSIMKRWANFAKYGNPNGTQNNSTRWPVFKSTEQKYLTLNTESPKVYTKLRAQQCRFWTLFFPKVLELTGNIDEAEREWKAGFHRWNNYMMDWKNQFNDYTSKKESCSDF
Chain of Glycogen synthase kinase-3 beta (Homo sapiens) (P49841 whole entry, looked up): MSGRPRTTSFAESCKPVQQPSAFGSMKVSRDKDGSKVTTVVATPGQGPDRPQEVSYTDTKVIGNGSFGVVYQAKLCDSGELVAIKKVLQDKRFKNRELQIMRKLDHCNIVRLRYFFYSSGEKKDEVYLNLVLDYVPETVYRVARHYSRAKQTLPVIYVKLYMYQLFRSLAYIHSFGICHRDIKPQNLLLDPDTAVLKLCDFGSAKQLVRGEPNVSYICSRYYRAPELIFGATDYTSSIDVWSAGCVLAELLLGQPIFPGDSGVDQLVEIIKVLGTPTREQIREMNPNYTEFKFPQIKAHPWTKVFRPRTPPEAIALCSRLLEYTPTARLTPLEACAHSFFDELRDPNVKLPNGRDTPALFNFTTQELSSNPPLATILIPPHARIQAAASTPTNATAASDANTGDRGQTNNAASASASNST

Cc1cc2nc(-c3cnc(N)s3)c(-c3cnc(N)s3)nc2cc1C
IC50 (Beta-secretase 1): 3 µM | Activity (Rattus norvegicus [1]): 69% | Activity (Rattus norvegicus [2]): 55%

O=C(N/N=C/c1ccccn1)c1ccc(C(=O)NC23CC4CC(CC(C4)C2)C3)cc1
IC50 (SK-N-MC): 42.4 µM

CO[C@@H]1C=C[C@@]23c4cc5c(cc4CN(C[C@@H]2OC(=O)c2ccc([N+](=O)[O-])cc2)C3C1)OCO5 (some centres undefined)
IC50 (Acetylcholinesterase [3]): 14.7 µM | inhibition [4]: 27%

O=c1c2ccc(OCCN3CCCC3)cc2oc2cc(OCCN3CCCC3)cc(O)c12
IC50 (Acetylcholinesterase [5]): 0.12 µM

O=S(=O)(NC12CC3CC(CC(C3)C1)C2)C1CCCS1 (centres undefined)
inhibition [6]: 26% | inhibition [7]: 88%

CCN(CC)Cc1ccc(/C=C/C(=O)c2ccc(OC)c(OC)c2)cc1O
inhibition [8]: 20.2%

C#CCOc1cccc(-c2cc(-c3ccc(OCCN4CCOCC4)cc3)nc(C)n2)c1
IC50 (Acetylcholinesterase [9]): 0.00954 µM

CCN1CCN(c2ccc(-c3nc4ccccc4[nH]3)cc2)CC1
IC50 (Acetylcholinesterase [3]): 5.18 µM | IC50 (Cholinesterase [10]): 34.9 µM

COc1cc(-c2nc3ccccc3s2)ccc1OCC(=O)NCCCNc1c2c(nc3ccccc13)CCCC2
inhibition [11]: 33.7%

C#CCOc1ccc(-c2cc(-c3ccc(OCCN4CCOCC4)cc3)nc(N)n2)cc1
IC50 [12]: 18.3 µM | IC50 [13]: 9.91 µM

COc1cc(/C=C/C(=O)N2CCC(c3ncccn3)CC2)ccc1O
IC50 (Cholinesterase [14]): 3.4 µM | inhibition [15]: 61.1% | inhibition [16]: 53.1%

Cc1nc(C)c(C(=O)OCCCOC(=O)c2ccccn2)nc1C
Ratio IC50 [17]: 1.32e+07

CCN(CCCCOc1ccc(/C=C/C(=O)N2CCc3ccccc3C2)cc1OC)Cc1ccccc1
IC50 [18]: 6.3 µM | IC50 [19]: 8.6 µM | IC50 (Acetylcholinesterase [20]): 12.1 µM | IC50 (Cholinesterase [21]): 8.9 µM | Activity [22]: 0.53 equiv

CC1=C[C@H]2c3c(O)cc(-c4cc5ccc(O)cc5o4)cc3O[C@@]3(c4ccc(O)c5c4OC(C)(C)C=C5)Oc4cc(O)ccc4[C@H](C1)[C@@H]23
Papp [23]: 8.7 ×10⁻⁶ cm/s | inhibition [24]: 63.3%

NCCCCCCNC1(c2ccccc2)CCCCC1
IC50 [25]: 0.24 µM | IC50 [26]: 1.7 µM
